{"source": "patent US20110269807A1", "about": "“NOVEL TREATMENT FOR AGE RELATED MACULAR DEGENERATION AND OCULAR ISCHEMIC DISEASE ASSOCIATED WITH COMPLEMENT ACTIVATION BY TARGETING 5-LIPOXYGENASE” (ALLERGAN, INC., priority 2010, published 2011)", "key": {"[1]": {"target": "T1, 5-lipoxygenase (Homo sapiens, UniProt P09917)", "T1 sequence (P09917 1-674)": "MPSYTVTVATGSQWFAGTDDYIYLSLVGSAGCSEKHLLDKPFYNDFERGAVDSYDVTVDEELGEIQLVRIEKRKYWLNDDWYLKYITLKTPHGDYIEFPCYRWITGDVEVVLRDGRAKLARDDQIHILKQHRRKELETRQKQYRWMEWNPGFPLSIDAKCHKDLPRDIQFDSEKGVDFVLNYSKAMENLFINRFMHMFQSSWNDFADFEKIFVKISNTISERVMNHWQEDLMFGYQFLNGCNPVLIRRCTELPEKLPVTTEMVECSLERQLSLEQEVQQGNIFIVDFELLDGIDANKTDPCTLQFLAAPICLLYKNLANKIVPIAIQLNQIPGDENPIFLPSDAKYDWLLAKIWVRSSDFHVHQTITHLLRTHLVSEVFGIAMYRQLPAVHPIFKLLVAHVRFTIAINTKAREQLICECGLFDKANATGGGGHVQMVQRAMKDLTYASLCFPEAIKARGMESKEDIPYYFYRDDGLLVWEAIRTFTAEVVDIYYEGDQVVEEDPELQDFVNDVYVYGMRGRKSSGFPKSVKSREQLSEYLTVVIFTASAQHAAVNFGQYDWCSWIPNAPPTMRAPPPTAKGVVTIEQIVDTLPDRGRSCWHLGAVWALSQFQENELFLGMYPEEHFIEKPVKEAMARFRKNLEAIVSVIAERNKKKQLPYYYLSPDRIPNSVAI", "details": "read-out: known I.C.50 inhibition of 5-lipoxygenase; Cho et al., J Med Chem 1991; cited from earlier work"}, "[2]": {"tested_on": "ARPE-19 cells", "assay": "Complement mediated cell death assay on RPE cells in the context of oxidative stress (cell protection assay, NIH clinical collection library screen)", "format": "cell-based", "details": "for protection against cell death mediated by complement attack and oxidative stress: versus vehicle (DMSO)", "method": "ARPE-19 cells were plated at sub confluence in 96 well culture plates and cultured 24 to 48 hrs. The cells were then treated with 1:1000 dilution of each compound from the NIH clinical collection library overnight. The following day culture media was collected and set aside. The cells were washed and then treated with 0.77 mM H2O2 in hanks buffered saline solution (HBSS) for 90 minutes in the presence of fresh compound from NIH clinical collection library at a 1:1000 dilution. Cells were then washed and primed with a solution of HBSS containing 24% S-58 for 30 minutes. After the priming step cells were washed and then treated with 6% C1q deficient human serum in the original cell culture supernatant collected prior to H2O2 treatment. 90 minutes after addition of the human serum cells were labeled with the membrane impermeant nuclear dye SYTOX® orange and the number of positive cells determined. This count was then used to determine level of cell death. Quantitation and imaging were accomplished by capturing a single field per objective using a 10× objective and then counting the number of positive nuclei using metamorph image analysis software. Data was collected and expressed as % protection relative to wells containing vehicle alone (DMSO).\nData was collected and the level of protection by each compound determined by averaging the results of two independent experiments. FIG. 4 is the distribution of results indexed to compound plate (y-axis) and Protection (x-axis). […] FIG. 5 contains a list of compounds with protective properties. Of the 17 compounds selected, six compounds (Zeranol, Penciclovir, Rifapentine, Rifaximin, calcitrol, 3-[3,5-DIBROMO-4-HYDROXYBENZOYL]-2-ETHYLBENZOFURAN) were deemed to function as anti-oxidants in the assay. Of the remaining 11 compounds, four fall into a single class associated with modulation of the arachidonic acid pathway. This included Zileuton, Zafirlukast, Montelukast, and Loxoprofen. […] The targeting was both direct at 5-lipoxygenase (Zileuton) and indirect at the leukotiene receptor (Zafirlukast, Montelukast).\nThe observation that inhibition of 5-lipoxygenase is protective against the combined effects of oxidative stress and complement attack in ARPE-19 cells prompted us to test the 5 lipoxygenase activating protein inhibitor MK886 for its ability to protect ARPE-19 cells from oxidative stress and complement attack in vitro. The cell protection assay was carried out essentially as described in Examples 1-4.\nIn addition to the MK886 inhibitor we also evaluated other know 5-lipoxygenase inhibitors, including 2-TEDC and monocyclin, for their ability to protect ARPE-19 cells against oxidative stress and complement attack, using the cell protection assay described in Examples 1-4."}, "[3]": {"tested_on": "ARPE-19 cells", "assay": "Oxidative stress followed by challenge with complement, cell death", "format": "cell-based", "details": "then challenge with complement", "source_text": "Oxidative stress and complement activation are the two most highly cited factors associated with occurrence and progression of AMD. To examine functional consequences of this relationship we treated ARPE-19 cells with either H2O2 or t-BH followed by challenge with complement. […] FACS analysis of ARPE-19 after treatment with t-Bh or H2O2 indicated minimal impact in expression levels (FIG. 3B)."}, "[4]": {"tested_on": "Balb/c mice", "assay": "Blue light induced retinal damage, ERG", "format": "in vivo", "details": "1 mg/Kg PO BID 14 days; ERG 2 weeks post blue light; p<0.05", "source_text": "To further explore the protective effects of inhibition of the 5-lipoxygenase pathway, we examined the ability of 5-lipoxygenase inhibition in two in vivo models. The first in vivo model was a model of retinal oxidative stress induced by intravitreal injection of Paraquat in SOD1−/+ animals (Dong, A., et al., Superoxide dismutase 1 protects retinal cells from oxidative damage. J Cell Physiol, 2006. 208(3): p. 516-26). In addition to elevation of oxidative stress Paraquat is also known to induce activation of complement (Sun, S., et al. (2011 Mar. 18) “Complement Inhibition Alleviates Paraquat-Induced Acute Lung Injury” Am J Respir Cell Mol Biol. EPub), allowing us to examine effects of oxidative stress and complement activation in vivo similar to that observed in the in vitro RPE assay, above. The second in vivo model in which we examined the effects of 5-lipoxygenase inhibition was a rodent light induced retinal degeneration model. […]\nThe ERG was performed 2 weeks post blue light (4 days post OCT to allow for cataracts to clear). […] The ERG was then recorded with the animal on a heating pad (takes 7-8 minutes). Animals were revived by administration of 0.5 mg/kg atipamezole (injected i.p.), returned to their cages, and warmed using a heating pad and monitored until awake."}, "[5]": {"tested_on": "Balb/c mice", "assay": "Blue light induced retinal damage, outer nuclear layer histology scoring", "format": "in vivo", "details": "1 mg/Kg PO BID 14 days; blue light 4800 lux 8 hours", "method": "Balb/c mice were dosed orally (PO) at 1 mg/Kg starting 16 hours prior to blue light, and then BID for the next 14 days. Control animal received an equivalent volume of vehicle (0.5% Avicel R-91 and 0.1% Tween-80 in dH2O) to compound treated animals.\nAnimals were first dark adapted for 16 hours prior to blue light. Animals were then exposed to blue light at 4800 lux for 8 hours. Animals were then moved to normal housing conditions.\nEyes were immersion fixed over night at room temperature in Davidson's Fix special (BBC Biochemical, Mt Vernon, Wash.), dehydrated for 1 hr in 50% EtOH at room temperature, and then placed into 70% EtOH at room temperature. Eyes were stored in 70% EtOH until subjected to automated paraffin processing. After processing, eyes were embedded in paraffin, sectioned on a rotary microtome at 5 μm thickness through the optic nerve head parallel to the vertical meridian, and mounted on glass slides. Sections were baked onto slides, subjected to automated H&E staining, and coverslipped using permanent mounting medium. Stained tissue sections were then examined by an observed blinded to treatment regiments and scored to determine the level of damage to the outer nuclear layer."}}, "note": "Entries after “also recorded” stand apart in the source; their conditions may differ."}
{"smiles": "N#C/C(=C\\c1ccc(O)c(O)c1)C(=O)OCCc1cccs1", "note": "[2-TEDC]", "values": [{"measurement": "IC50", "setting": "[1]", "value": 0.09, "unit": "µM"}, {"measurement": "IC50", "setting": "[2]; Homo sapiens, FIG. 7, read-out: I.C.50 of blocking cell death within the assay system", "value": 0.1, "unit": "µM"}, {"measurement": "activity at the known I.C. 50 for 12 lipoxygenase", "setting": "[2]; concentration = known I.C.50 for 12 lipoxygenase", "value": "little activity"}, {"measurement": "protection at the known I.C.50 for 15 lox", "setting": "[2]; concentration = known I.C.50 for 15 lox", "value": "~100", "unit": "%"}, {"measurement": "protection against cell death mediated by complement attack and oxidative stress", "setting": "[2]", "value": "dose dependently protected; also recorded: dose dependent protection"}]}
{"smiles": "OO", "note": "[H2O2]", "values": [{"measurement": "increase in cell death", "setting": "[3]", "value": "> 10", "unit": "fold"}]}
{"smiles": "CC(C)c1ccc2c(c1)c(SC(C)(C)C)c(CC(C)(C)C(=O)[O-])n2Cc1ccc(Cl)cc1.[Na+]", "note": "[MK886, 1-[(4-chlorophenyl)methyl]-3-[(1,1-dimethylethyl)thio]-α,α-dimethyl-5-(1-methylethyl)-1H-indole-2-propanoic acid, sodium salt]", "values": [{"measurement": "protection against cell death mediated by complement attack and oxidative stress", "setting": "[2]; sodium salt", "value": "dose dependently protected; also recorded: protects; also recorded: effectively blocked cell death in a dose dependent manner"}]}
{"smiles": "c1ccc2c(c1)SCc1c-2[nH]c2ccccc12", "note": "[PD146176, 6,11-dihydro-[1]benzothiopyrano[4,3-b]indol]", "values": [{"measurement": "protection against cell death mediated by complement attack and oxidative stress", "setting": "[2]", "value": "no protection; also recorded: no protective activity"}]}
{"smiles": "Cn1nccc1-c1ccc(Sc2cccc(C3(C(N)=O)CCOCC3)c2)cc1", "note": "[PF-4191834, 4-(3-(4-(1-Methyl-1H-pyrazol-5-yl)phenylthio)phenyl)-tetrahydro-2H-pyran-4-carboxamide]", "values": [{"measurement": "protection against loss of retinal ERG A-wave amplitude", "setting": "[4]", "value": "protected against the loss of ERG A-wave amplitude; also recorded: protected against functional loss"}, {"measurement": "retinal structure / outer nuclear layer thickness", "setting": "[5]", "value": "protected retinal structure and preserved photoreceptors"}]}
{"smiles": "CC(C)(C)OO", "note": "[t-BH]", "values": [{"measurement": "increase in cell death", "setting": "[3]", "value": "20-30%"}]}
